For one experiment, the target named is T1, p38 MAP Kinase a (Homo sapiens, UniProt Q16539).
T1 construct: purchased Upstate (Dundee UK)
Briefly: p38 MAP Kinase activity, radiometric filter-binding assay (Upstate). Format: biochemical.

For experiment [1], the system named is phosphorylation of MAPKAP-2 in U937 cells. Briefly: Cellular assay for the phosphorylation of MAPKAP-2 by p38 in U937 cells. Particulars: Homo sapiens, U-937; macrophage cell line U937; anisomycin 10 μM; read-out: Inhibition of phosphorylation of MAPKAP-2 in U937 cells (IC50). Format: cell-based. The protocol: U937 or HUT78 cells were plated in RPMI 1640, and were incubated at 37° C., 5% CO2 for 18 hours. 10 mM stocks of compounds were diluted media/0.1% DMSO to give a log or semi-log dilution series. The wells for ‘no treatment’ and ‘anisomycin’ were treated with 0.1% DMSO only. The cells were incubated at 37° C., 5% CO2 for a further 4 hours. Anisomycin was added to all wells except ‘no treatment’ at a final concentration of 10 μM. The cells were incubated at 37° C., 5% CO2 for 30 minutes before harvest. Plates were stood on ice whilst harvesting, and all the following steps were carried out at 4° C. The cells were pelleted at 1000 rpm for 10 minutes at 4° C., the media aspirated, and the pellet washed with cold PBS. The pellets were lysed in 120 μl of SDS lysis buffer (62.5 mM Tris, pH 6.8, 2% SDS, 10% glycerol, 50 mM DTT, with protease inhibitors and phosphatase inhibitors added according to the manufacturers' recommendations). […]
In cells, p38 activity leads to the phosphorylation of the protein MAPKAP-2 and thus one method to assess the inhibition of p38 inside cells is to look at the decrease in the levels of phosphorylated MAPKAP-2. Table 1 lists the IC50s as measured by the level of MAPKAP-2 phosphorylation in a macrophage cell line (U937) and non-macrophage cell line (HUT78). […]

Experiment [2] deals with phosphorylation of MAPKAP-2 in HUT 78 cells. The experiment in a line: Cellular assay for the phosphorylation of MAPKAP-2 by p38 in HUT 78 cells. It is filed as cell-based. To be noted: for IC50: Homo sapiens, HuT78, non-macrophage cell line HUT 78, anisomycin 10 μM, read-out: Inhibition of phosphorylation of MAPKAP-2 in HUT 78 cells (IC50); for Ratio IC50s in HUT 78 to U937 cells: macrophage selectivity. On the procedure:
U937 or HUT78 cells were plated in RPMI 1640, and were incubated at 37° C., 5% CO2 for 18 hours. 10 mM stocks of compounds were diluted media/0.1% DMSO to give a log or semi-log dilution series. The wells for ‘no treatment’ and ‘anisomycin’ were treated with 0.1% DMSO only. The cells were incubated at 37° C., 5% CO2 for a further 4 hours. Anisomycin was added to all wells except ‘no treatment’ at a final concentration of 10 μM. The cells were incubated at 37° C., 5% CO2 for 30 minutes before harvest. Plates were stood on ice whilst harvesting, and all the following steps were carried out at 4° C. The cells were pelleted at 1000 rpm for 10 minutes at 4° C., the media aspirated, and the pellet washed with cold PBS. The pellets were lysed in 120 μl of SDS lysis buffer (62.5 mM Tris, pH 6.8, 2% SDS, 10% glycerol, 50 mM DTT, with protease inhibitors and phosphatase inhibitors added according to the manufacturers' recommendations). After 30 minutes on ice, the samples were sonicated for 5 seconds before centrifugation at 13,000 rpm 4° C. for 10 minutes to remove cell debris. 10 μl of the resulting gel samples were loaded per lane on NOVEX 4-12% Bis-Tris MOPS gels. Membranes from western transfer of gels were blotted with anti-phospho MAPKAP-2, anti-phospho HSP27 and anti-GAPDH according to the manufacturers' instructions. Signal was visualised using HRP-linked anti-rabbit or anti-mouse antibodies, ECL reagent and ECL film. IC50 values for the various compounds were visualised from the resulting photographic images, using both band-shift and signal intensity.
In cells, p38 activity leads to the phosphorylation of the protein MAPKAP-2 and thus one method to assess the inhibition of p38 inside cells is to look at the decrease in the levels of phosphorylated MAPKAP-2. Table 1 lists the IC50s as measured by the level of MAPKAP-2 phosphorylation in a macrophage cell line (U937) and non-macrophage cell line (HUT78). […] In contrast, example 33 that has an esterase motif that would be expected to confer macrophage selectivity, has an activity in the macrophage cell line (U937) which is 100 fold greater than in the non-macrophage cell line (HUT 78).

A further experiment has as its system THP-1 TNFα release. The experiment in a line: LPS-stimulation of THP-1 cells, TNF-α release by ELISA. It is filed as cell-based. Particulars: Homo sapiens, THP-1, 6 h; read-out: Inhibitor activity versus THP-1 TNFα release. On the procedure: THP-1 cells were plated in 100 μl at a density of 4×10^4 cells/well in V-bottomed 96 well tissue culture treated plates and incubated at 37° C. in 5% CO2 for 16 hrs. 2 hrs after the addition of the inhibitor in 100 μl of tissue culture media, the cells were stimulated with LPS (E coli strain 005:B5, Sigma) at a final concentration of 1 μg/ml and incubated at 37° C. in 5% CO2 for 6 hrs. TNF-α levels were measured from cell-free supernatants by sandwich ELISA (R&D Systems #QTA00B).

Where [3] appears, read: compound as such (Example 33: Ester), read-out: Inhibition of P38α (IC50 nM).
Setting [4] is: IC50 range, read-out: Inhibitor activity versus p38 MAPKa.

The structures appear in SMILES notation. Where two headings read alike, the source gives them in different places.

T1 sequence (Q16539 whole entry): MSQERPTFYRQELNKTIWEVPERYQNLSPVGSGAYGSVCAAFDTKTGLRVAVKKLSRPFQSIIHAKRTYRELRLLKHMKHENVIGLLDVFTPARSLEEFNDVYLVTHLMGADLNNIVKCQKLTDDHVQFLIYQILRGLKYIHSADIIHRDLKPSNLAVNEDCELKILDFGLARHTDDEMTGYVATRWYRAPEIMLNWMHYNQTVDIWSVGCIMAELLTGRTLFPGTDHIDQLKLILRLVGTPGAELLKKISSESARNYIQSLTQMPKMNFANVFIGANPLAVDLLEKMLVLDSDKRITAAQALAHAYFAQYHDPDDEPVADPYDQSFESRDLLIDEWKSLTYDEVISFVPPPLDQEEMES

Regarding `Nc1c(C(=O)c2ccc(F)cc2F)ccc(=O)n1-c1c(F)cccc1F` [Compound I, reference compound], the IC50 on p38 MAP Kinase a (setting [3]) worked out at 47 nM; in experiment [1] it was 9 nM; in experiment [2], 10 nM. The “Ratio IC50s in HUT 78 to U937 cells” value in experiment [2] (MAPKAP-2 phosphorylation) is listed as 1.1.
Consider `CC(C)C[C@H](NCCc1cc(F)c(-n2c(N)c(C(=O)c3ccc(F)cc3F)ccc2=O)c(F)c1)C(=O)OC1CCCC1` [Example 33, cyclopentyl N-(2-{4-[6-amino-5-(2,4-difluorobenzoyl)-2-oxopyridin-1(2H)-yl]-3,5-difluorophenyl}ethyl)-L-leucinate], for which the IC50 on p38 MAP Kinase a (Acid (carboxylic acid of the ester), read-out: Inhibition of P38α (IC50 nM)) was 0.5 nM; on p38 MAP Kinase a (setting [4]), 100 to 1000 nM; on p38 MAP Kinase a (setting [3]), 100 nM; in the experiment on THP-1 TNFα release it was less than 100 nM; in experiment [1] it was 0.7 nM; in experiment [2], 73 nM. For the same compound, the “activity in the macrophage cell line (U937) greater than in the non-macrophage cell line (HUT 78)” value in experiment [2] (MAPKAP-2 phosphorylation) stood at 100 fold. The “Ratio IC50s in HUT 78 to U937 cells” value in experiment [2] (MAPKAP-2 phosphorylation) is 112.
For the compound `Nc1c(C(=O)c2ccc(F)cc2F)ccc(=O)n1-c1c(F)cc(CCN[C@H](C(=O)OC2CCCC2)c2ccc(O)cc2)cc1F` [Example 44, Cyclopentyl (2S)-{[2-(4-{6-amino-5-[(2,4-difluorophenyl)carbonyl]-2-oxopyridin-1(2H)-yl}-3,5-difluorophenyl)ethyl]amino}(4-hydroxyphenyl)ethanoate], the IC50 on p38 MAP Kinase a (setting [4]) and in the experiment on THP-1 TNFα release was less than 100 nM throughout.
For `C[C@@H](O)[C@H](NCCc1cc(F)c(-n2c(N)c(C(=O)c3ccc(F)cc3F)ccc2=O)c(F)c1)C(=O)OC1CCCC1` [Example 45, Cyclopentyl N-[2-(4-{6-amino-5-[(2,4-difluorophenyl)carbonyl]-2-oxopyridin-1(2H)-yl}-3,5-difluorophenyl)ethyl]-L-threoninate], the IC50 on p38 MAP Kinase a (setting [4]) and in the experiment on THP-1 TNFα release was less than 100 nM each time.
Consider `COc1ccc([C@H](NCCc2cc(F)c(-n3c(N)c(C(=O)c4ccc(F)cc4F)ccc3=O)c(F)c2)C(=O)OC2CCCC2)cc1` [Example 46, Cyclopentyl (2S)-{[2-(4-{6-amino-5-[(2,4-difluorophenyl)carbonyl]-2-oxopyridin-1(2H)-yl}-3,5-difluorophenyl)ethyl]amino}(4-methoxyphenyl)ethanoate], for which the IC50 at p38 MAP Kinase a (setting [4]) and with THP-1 TNFα release was less than 100 nM in each case.
Consider `CC(C)C[C@H](NCCc1ccc(-n2c(N)c(C(=O)c3ccc(F)cc3F)ccc2=O)s1)C(=O)OC1CCCC1` [Example 49, Cyclopentyl N-(2-{5-[6-amino-5-(2,4-difluorobenzoyl)-2-oxopyridin-1(2H)-yl]-2-thienyl}ethyl)-L-leucinate], for which the IC50 is 100 to 1000 nM on p38 MAP Kinase a (setting [4]) and less than 100 nM with THP-1 TNFα release.
